From ChEMBL document CHEMBL1201862, “PubChem BioAssay data set” (2004)
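Interpolation was linear, between the two tested concentrations surrounding the appropriate level; five concentrations were tested over 48 hours in 96-well plates. GI50: concentration for 50% inhibition of growth.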 The source made the active and inactive calls. Rule as the data show it: active = GI50 up to about 1.1 µM and inactive = higher.

Key:
Assay in all cases: inhibition of tumour cell growth, NCI panel, 48 h
A549 = tested on: A549
ACHN = tested on: ACHN
BT-549 = tested on: BT-549
CAKI-1 = tested on: CAKI-1
DU-145 = tested on: DU-145
EKVX = tested on: EKVX
HOP-62 = tested on: HOP-62
IGROV-1 = tested on: IGROV-1
LOX IMVI = tested on: LOX IMVI
MDA-MB-231 = tested on: MDA-MB-231
NCI-H460 = tested on: NCI-H460
NCI-H522 = tested on: NCI-H522
NCI/ADR-RES = tested on: NCI/ADR-RES
OVCAR-4 = tested on: OVCAR-4
RPMI-8226 = tested on: RPMI-8226
SF-268 = tested on: SF-268
SR = tested on: SR
SW-620 = tested on: SW-620
T47D = tested on: T47D
U-251 = tested on: U-251

## CC(C)C1OC(=O)C(Cc2ccccc2)N(C)C(=O)C(C(C)C)OC(=O)C(Cc2ccccc2)N(C)C(=O)C(C(C)C)OC(=O)C(Cc2ccccc2)N(C)C1=O (stereo not given)
A549
  GI50: 0.618 µM (active)
ACHN
  GI50: 0.603 µM (active)
BT-549
  GI50: 1.39 µM (inactive)
CAKI-1
  GI50: 0.979 µM (active)
DU-145
  GI50: 1.62 µM (inactive)
EKVX
  GI50: 0.984 µM (active)
HOP-62
  GI50: 0.838 µM (active)
IGROV-1
  GI50: 1.03 µM (active)
LOX IMVI
  GI50: 0.802 µM (active)
MDA-MB-231
  GI50: 1.37 µM (inactive)
NCI-H460
  GI50: 0.865 µM (active)
NCI-H522
  GI50: 0.689 µM (active)
NCI/ADR-RES
  GI50: 0.771 µM (active)
OVCAR-4
  GI50: 0.463 µM (active)
RPMI-8226
  GI50: 0.489 µM (active)
SF-268
  GI50: 1.4 µM (inactive)
SR
  GI50: 1.89 µM (inactive)
SW-620
  GI50: 0.685 µM (active)
T47D
  GI50: 1.05 µM (active)
U-251
  GI50: 0.661 µM (active)

## O=S(=O)(CCn1c(Sc2ccccc2)c(Sc2ccccc2)c2ccccc21)c1ccccc1
A549
  GI50: > 100 µM (inactive)
ACHN
  GI50: > 100 µM (inactive)
BT-549
  GI50: > 100 µM (inactive)
CAKI-1
  GI50: 55.8 µM (inactive)
DU-145
  GI50: > 100 µM (inactive)
EKVX
  GI50: > 100 µM (inactive)
HOP-62
  GI50: > 100 µM (inactive)
IGROV-1
  GI50: > 100 µM (inactive)
LOX IMVI
  GI50: > 100 µM (inactive)
MDA-MB-231
  GI50: > 100 µM (inactive)
NCI-H460
  GI50: > 100 µM (inactive)
NCI-H522
  GI50: > 100 µM (inactive)
NCI/ADR-RES
  GI50: > 100 µM (inactive)
OVCAR-4
  GI50: > 100 µM (inactive)
RPMI-8226
  GI50: > 100 µM (inactive)
SF-268
  GI50: > 100 µM (inactive)
SR
  GI50: > 100 µM (inactive)
SW-620
  GI50: > 100 µM (inactive)
T47D
  GI50: > 100 µM (inactive)
U-251
  GI50: > 100 µM (inactive)

## C/C=C(\C)C(=O)OC1CC(OC(C)=O)C2(C(=O)OC)COC3C2C1(C)C1C2(C(=O)OC)OCC1(C3O)C1(O)C3CC(C4(O)C=COC4O3)C1(C)O2 (stereo not given)
A549
  GI50: > 100 µM (inactive)
ACHN
  GI50: > 100 µM (inactive)
BT-549
  GI50: > 100 µM (inactive)
CAKI-1
  GI50: > 100 µM (inactive)
DU-145
  GI50: > 100 µM (inactive)
EKVX
  GI50: > 100 µM (inactive)
HOP-62
  GI50: > 100 µM (inactive)
IGROV-1
  GI50: > 100 µM (inactive)
LOX IMVI
  GI50: > 100 µM (inactive)
MDA-MB-231
  GI50: > 100 µM (inactive)
NCI-H460
  GI50: > 100 µM (inactive)
NCI-H522
  GI50: > 100 µM (inactive)
NCI/ADR-RES
  GI50: > 100 µM (inactive)
OVCAR-4
  GI50: > 100 µM (inactive)
RPMI-8226
  GI50: > 100 µM (inactive)
SF-268
  GI50: > 100 µM (inactive)
SR
  GI50: > 100 µM (inactive)
SW-620
  GI50: > 100 µM (inactive)
T47D
  GI50: > 100 µM (inactive)
U-251
  GI50: > 100 µM (inactive)

## C=CCSC1=N/C(=C\c2ccc(Cl)cc2)C(=O)N1CC=C
A549
  GI50: 32.7 µM (inactive)
ACHN
  GI50: 32.6 µM (inactive)
BT-549
  GI50: 23.5 µM (inactive)
CAKI-1
  GI50: 37 µM (inactive)
DU-145
  GI50: 20.5 µM (inactive)
EKVX
  GI50: 17.1 µM (inactive)
HOP-62
  GI50: 41.9 µM (inactive)
IGROV-1
  GI50: 53.8 µM (inactive)
LOX IMVI
  GI50: 42.9 µM (inactive)
MDA-MB-231
  GI50: 30.2 µM (inactive)
NCI-H460
  GI50: 43.7 µM (inactive)
NCI-H522
  GI50: 23 µM (inactive)
NCI/ADR-RES
  GI50: 34 µM (inactive)
OVCAR-4
  GI50: 21.5 µM (inactive)
RPMI-8226
  GI50: 17.4 µM (inactive)
SF-268
  GI50: 40.6 µM (inactive)
SR
  GI50: 27.4 µM (inactive)
SW-620
  GI50: 30.3 µM (inactive)
T47D
  GI50: 23.4 µM (inactive)
U-251
  GI50: 22 µM (inactive)

## c1ccc(CN2CCN3CCN(CC2)CCN(Cc2ccccc2)CC3)cc1
A549
  GI50: 11.5 µM (inactive)
ACHN
  GI50: 20.7 µM (inactive)
BT-549
  GI50: 5.16 µM (inactive)
CAKI-1
  GI50: 30.3 µM (inactive)
DU-145
  GI50: 12.4 µM (inactive)
EKVX
  GI50: 8.47 µM (inactive)
HOP-62
  GI50: 14.2 µM (inactive)
IGROV-1
  GI50: 7.23 µM (inactive)
LOX IMVI
  GI50: 8.81 µM (inactive)
MDA-MB-231
  GI50: 5.43 µM (inactive)
NCI-H460
  GI50: 6.15 µM (inactive)
NCI-H522
  GI50: 4.36 µM (inactive)
NCI/ADR-RES
  GI50: > 100 µM (inactive)
OVCAR-4
  GI50: 4.04 µM (inactive)
RPMI-8226
  GI50: 2.14 µM (inactive)
SF-268
  GI50: 11.6 µM (inactive)
SR
  GI50: 4.08 µM (inactive)
SW-620
  GI50: 13.7 µM (inactive)
T47D
  GI50: 4.08 µM (inactive)
U-251
  GI50: 4.29 µM (inactive)

## O=C1C(c2c(O)[nH]c3ccc(Cl)cc23)=Nc2ccccc21
A549
  GI50: 3.58 µM (inactive)
ACHN
  GI50: 3.86 µM (inactive)
BT-549
  GI50: 66.4 µM (inactive)
CAKI-1
  GI50: 3.83 µM (inactive)
DU-145
  GI50: 2.81 µM (inactive)
EKVX
  GI50: 5.07 µM (inactive)
HOP-62
  GI50: 5.58 µM (inactive)
IGROV-1
  GI50: 0.352 µM (active)
LOX IMVI
  GI50: 3.66 µM (inactive)
MDA-MB-231
  GI50: 2.51 µM (inactive)
NCI-H460
  GI50: 12.1 µM (inactive)
NCI-H522
  GI50: 10.6 µM (inactive)
NCI/ADR-RES
  GI50: 7.91 µM (inactive)
OVCAR-4
  GI50: 2.2 µM (inactive)
RPMI-8226
  GI50: 5.09 µM (inactive)
SF-268
  GI50: 5.36 µM (inactive)
SR
  GI50: 9.02 µM (inactive)
SW-620
  GI50: 25.4 µM (inactive)
T47D
  GI50: 3.7 µM (inactive)
U-251
  GI50: 4.98 µM (inactive)

## COc1cc(OC)cc(OCc2nc3cc(C(F)(F)F)ccc3nc2-c2ccccc2)c1
A549
  GI50: > 100 µM (inactive)
ACHN
  GI50: > 100 µM (inactive)
BT-549
  GI50: > 100 µM (inactive)
CAKI-1
  GI50: > 100 µM (inactive)
DU-145
  GI50: > 100 µM (inactive)
EKVX
  GI50: 22.2 µM (inactive)
HOP-62
  GI50: > 100 µM (inactive)
IGROV-1
  GI50: 0.809 µM (active)
LOX IMVI
  GI50: > 100 µM (inactive)
MDA-MB-231
  GI50: 76.4 µM (inactive)
NCI-H460
  GI50: > 100 µM (inactive)
NCI-H522
  GI50: > 100 µM (inactive)
NCI/ADR-RES
  GI50: > 100 µM (inactive)
OVCAR-4
  GI50: > 100 µM (inactive)
RPMI-8226
  GI50: > 100 µM (inactive)
SF-268
  GI50: > 100 µM (inactive)
SR
  GI50: > 100 µM (inactive)
SW-620
  GI50: > 100 µM (inactive)
T47D
  GI50: 48 µM (inactive)
U-251
  GI50: > 100 µM (inactive)

## COC(=O)c1ccccc1C1CN=NC12Cc1ccccc1C2=O (stereo not given)
A549
  GI50: > 100 µM (inactive)
ACHN
  GI50: > 100 µM (inactive)
BT-549
  GI50: 49.2 µM (inactive)
CAKI-1
  GI50: > 100 µM (inactive)
DU-145
  GI50: > 100 µM (inactive)
EKVX
  GI50: 42.5 µM (inactive)
HOP-62
  GI50: > 100 µM (inactive)
IGROV-1
  GI50: > 100 µM (inactive)
LOX IMVI
  GI50: 45.4 µM (inactive)
MDA-MB-231
  GI50: 78 µM (inactive)
NCI-H460
  GI50: > 100 µM (inactive)
NCI-H522
  GI50: 59.2 µM (inactive)
NCI/ADR-RES
  GI50: 46.8 µM (inactive)
OVCAR-4
  GI50: 52.4 µM (inactive)
RPMI-8226
  GI50: 48 µM (inactive)
SF-268
  GI50: > 100 µM (inactive)
SR
  GI50: > 100 µM (inactive)
SW-620
  GI50: > 100 µM (inactive)
T47D
  GI50: 41.3 µM (inactive)
U-251
  GI50: > 100 µM (inactive)

## N#Cc1c(N2CCCC2)ncn(Cc2ccccc2)c1=S
A549
  GI50: > 100 µM (inactive)
ACHN
  GI50: > 92.7 µM (inactive)
BT-549
  GI50: > 100 µM (inactive)
CAKI-1
  GI50: > 48 µM (inactive)
DU-145
  GI50: 86.3 µM (inactive)
EKVX
  GI50: > 79.3 µM (inactive)
HOP-62
  GI50: 40.3 µM (inactive)
IGROV-1
  GI50: > 87.9 µM (inactive)
LOX IMVI
  GI50: > 100 µM (inactive)
MDA-MB-231
  GI50: > 88.3 µM (inactive)
NCI-H460
  GI50: > 100 µM (inactive)
NCI-H522
  GI50: > 90.4 µM (inactive)
NCI/ADR-RES
  GI50: 65 µM (inactive)
OVCAR-4
  GI50: 44.2 µM (inactive)
RPMI-8226
  GI50: > 100 µM (inactive)
SF-268
  GI50: 33.6 µM (inactive)
SR
  GI50: > 100 µM (inactive)
SW-620
  GI50: > 100 µM (inactive)
T47D
  GI50: > 86.7 µM (inactive)
U-251
  GI50: 38.9 µM (inactive)

## Cc1coc2c1CC1(C)C(CCC(O)C1C)C2 (stereo not given)
A549
  GI50: > 100 µM (inactive)
ACHN
  GI50: > 100 µM (inactive)
BT-549
  GI50: > 100 µM (inactive)
CAKI-1
  GI50: > 100 µM (inactive)
DU-145
  GI50: > 100 µM (inactive)
EKVX
  GI50: > 100 µM (inactive)
HOP-62
  GI50: > 100 µM (inactive)
IGROV-1
  GI50: > 100 µM (inactive)
LOX IMVI
  GI50: > 100 µM (inactive)
MDA-MB-231
  GI50: > 100 µM (inactive)
NCI-H460
  GI50: > 100 µM (inactive)
NCI-H522
  GI50: > 100 µM (inactive)
NCI/ADR-RES
  GI50: > 100 µM (inactive)
OVCAR-4
  GI50: > 100 µM (inactive)
RPMI-8226
  GI50: > 100 µM (inactive)
SF-268
  GI50: > 100 µM (inactive)
SR
  GI50: > 100 µM (inactive)
SW-620
  GI50: > 100 µM (inactive)
T47D
  GI50: > 100 µM (inactive)
U-251
  GI50: > 100 µM (inactive)
